Measured values as given in US10800741B2 (ANCUREALL PHARMACEUTICAL (SHANGHAI) CO., LTD., priority 2017, dated 2020).

Legend:
H1581 (FGFR1 amp) = experiment: In vitro growth inhibition of H1581 tumor cells (MTT/CCK8); format: cell-based, Human; settings: Homo sapiens, NCI-H1581; in vitro growth inhibition (or induction of apoptosis), cells cultured 3 to 5 days, MTT (CCK8); read-out: IC50 H1581 (FGFR1 amp)
KATO III (FGFR2 amp) = experiment: In vitro growth inhibition of KATO III tumor cells (MTT/CCK8); format: cell-based, Human; settings: Homo sapiens, KATO III; in vitro growth inhibition (or induction of apoptosis), cells cultured 3 to 5 days, MTT (CCK8); read-out: IC50 KATO III (FGFR2 amp)
Hep3B2 (FGFR3/4+++) = experiment: In vitro growth inhibition of Hep3B2 tumor cells (MTT/CCK8); format: cell-based, Human; settings: Homo sapiens, Hep3B; in vitro growth inhibition (or induction of apoptosis), cells cultured 3 to 5 days, MTT (CCK8); read-out: IC50 Hep3B2 (FGFR3/4+++)
KCL-22 (BCR-ABL) = experiment: In vitro growth inhibition of KCL-22 tumor cells (MTT/CCK8); format: cell-based, Human; settings: Homo sapiens, KCL-22; in vitro growth inhibition (or induction of apoptosis), cells cultured 3 to 5 days, MTT (CCK8); read-out: IC50 KCL-22 (BCR-ABL)
Kasumi-1 (KIT N822K) = experiment: In vitro growth inhibition of Kasumi-1 tumor cells (MTT/CCK8); format: cell-based, Human; settings: Homo sapiens, Kasumi 1; in vitro growth inhibition (or induction of apoptosis), cells cultured 3 to 5 days, MTT (CCK8); read-out: IC50 Kasumi-1 (KIT N822K)
H1703 (PDGFRa amp) = experiment: In vitro growth inhibition of H1703 tumor cells (MTT/CCK8); format: cell-based, Human; settings: Homo sapiens, NCI-H1703; in vitro growth inhibition (or induction of apoptosis), cells cultured 3 to 5 days, MTT (CCK8); read-out: IC50 H1703 (PDGFRa amp)
Karpas 299 (NPM-ALK) = experiment: In vitro growth inhibition of Karpas 299 tumor cells (MTT/CCK8); format: cell-based, Human; settings: Homo sapiens, KARPAS-299; in vitro growth inhibition (or induction of apoptosis), cells cultured 3 to 5 days, MTT (CCK8); read-out: IC50 Karpas 299 (NPM-ALK)
DMS114 = experiment: In vitro growth inhibition of DMS114 cells; format: cell-based; settings: Homo sapiens, DMS-114, FGFR1 amp
Experimental: (§1) Adherent cells were digested with 0.25% trypsin-EDTA (Gibco). Suspension culture cells were collected by centrifugation (1700 rpm, 3 minutes). The supernatant was discarded and the cells were counted. According to each cell growth cycle, different concentrations of cells were prepared (5˜10×10^4 cells per ml), and inoculated to 96-well plates (Corning), with 100 μl per well, and incubated overnight at 37° C., 5% CO2. The next day, the test compound was added to the cultured cells (2 wells in parallel). The final concentration of the solvent was less than 1/1,000. The cells were further cultured for 3 to 5 days and assayed by MTT.
(§2) The MTT test reagent was a Dojindo CCK8 kit and the Microplate Reader was a THERMO […] FC instrument.
(§3) The adherent cells were taken out from the cell culture medium, and immediately added to a freshly prepared complete medium containing 10% CCK8 (5% FBS), 100 ul per hole. The suspended cells were directly added to a CCK8 reagent until reaching a final concentration of 10% and cultured for 1 to 4 hours. When a dark yellow color could be observed in the solvent control wells, the absorbance value at OD450 nm was measured and the cell growth rate was calculated according to the following formula: Cell Growth Rate (%)=100×(T−T0)/(C−T0)
(§4) T=optical density of drug-treated cell wells−optical density of blank control wells; T0=optical density of cell wells before drug treatment−optical density of blank control wells; C=optical density of solvent control wells−optical density of blank control wells. […] The experiments were repeated 1 to 3 times and a statistical analysis of data was conducted.
(§5) Mutations in the FGFR1-4 gene often occur in different types of cancer patients. In order to test the growth inhibition activity of the present compound against tumor cells expressing different FGFR variants, tumor cell lines expressing representative FGFR1-4 were selected for further determining the activity of compounds 25, 66, 38 and 95 of the present invention. BGJ398, a selective inhibitor of FGFR1-4, was used as the control compound. The specific test method is the same as test example 1.

Cal-120 = experiment: In vitro growth inhibition of Cal-120 cells; format: cell-based; settings: Homo sapiens, FGFR1 amp
Experimental: as §1, §2, §3, §4, §5

JIMT-1 = experiment: In vitro growth inhibition of JIMT-1 cells; format: cell-based; settings: Homo sapiens, FGFR1 amp, HER2 amp, PI3KCA C420R
Experimental: as §1, §2, §3, §4, §5

SNU-16 = experiment: In vitro growth inhibition of SNU-16 cells; format: cell-based; settings: Homo sapiens, FGFR2 amp
Experimental: as §1, §2, §3, §4, §5

AN3-CA = experiment: In vitro growth inhibition of AN3-CA cells; format: cell-based; settings: Homo sapiens, FGFR2 mutant
Experimental: as §1, §2, §3, §4, §5

MFM-223 = experiment: In vitro growth inhibition of MFM-223 cells; format: cell-based; settings: Homo sapiens, PI3KCA H1047R, FGFR1 amp, FGFR2 amp
Experimental: as §1, §2, §3, §4, §5

MDA-MB-453 = experiment: In vitro growth inhibition of MDA-MB-453 cells; format: cell-based; settings: Homo sapiens, PI3KCA H1047R, FGFR4+++/Y367C
Experimental: as §1, §2, §3, §4, §5

A375 = experiment: In vitro growth inhibition of A375 cells; format: cell-based; settings: Homo sapiens, A-375, BRAF V600E, FGFR2 mutant
Experimental: as §1, §2, §3, §4, §5

RT112/84 = experiment: In vitro growth inhibition of RT112/84 cells; format: cell-based; settings: Homo sapiens, FGFR3-TACC3
Experimental: as §1, §2, §3, §4, §5

Huh-7 = experiment: In vitro growth inhibition of Huh-7 cells; format: cell-based; settings: Homo sapiens, FGFR3+++, FGFR4 +++
Experimental: as §1, §2, §3, §4, §5

JHH-7 = experiment: In vitro growth inhibition of JHH-7 cells; format: cell-based; settings: Homo sapiens, JHH7, FGFR3+++, FGFR4 +++
Experimental: as §1, §2, §3, §4, §5

MOLM-13 (FLT3-ITD) = experiment: In vitro growth inhibition of MOLM-13 tumor cells (MTT/CCK8); format: cell-based, Human; settings: Homo sapiens, MOLM-13; in vitro growth inhibition (or induction of apoptosis), cells cultured 3 to 5 days, MTT (CCK8); read-out: IC50 MOLM-13 (FLT3-ITD)
RS4:11 = experiment: In vitro growth inhibition of FLT3 wild type overexpressing cells RS4:11; format: cell-based; settings: Homo sapiens, cells over expressing FLT3 wild-type
Experimental: as §1, §2, §3, §4
(§6) The present compounds which has a high growth inhibition activity on tumor cells positive expressing FLT3-ITD were selected for the determination of IC50 concentration on FLT3 wild tyoverexpressing cells RS4:11 and FLT3 wild-type normal expressing cells Jurkat. The specific test method is the same as that of test example 1.

Jurkat = experiment: In vitro growth inhibition of FLT3 wild-type normal expressing cells Jurkat; format: cell-based; settings: Homo sapiens, cells normally expressing FLT3 wild-type
Experimental: as §1, §2, §3, §4, §6

PLC/PRF/5 = experiment: In vitro growth inhibition of PLC/PRF/5 cells; format: cell-based; settings: Homo sapiens, FGFR3+++, FGFR4 +++
Experimental: as §1, §2, §3, §4, §5

Hep G2 = experiment: In vitro growth inhibition of Hep G2 cells; format: cell-based; settings: Homo sapiens, HepG2, FGFR3+++, FGFR4 +++
Experimental: as §1, §2, §3, §4, §5

IC50 (H1581 (FGFR1 amp)) [nM] | IC50 (KATO III (FGFR2 amp)) [nM] | IC50 (Hep3B2 (FGFR3/4+++)) [nM] | IC50 (KCL-22 (BCR-ABL)) [nM] | IC50 (Kasumi-1 (KIT N822K)) [nM] | IC50 (H1703 (PDGFRa amp)) [nM] | IC50 (Karpas 299 (NPM-ALK)) [nM] | IC50 (MOLM-13 (FLT3-ITD)) [nM] | IC50 (RS4:11) [nM] | Structure (SMILES) | IC50 (Jurkat) [nM] | also measured
6.97 | 0.461 | 38.9 | > 1000 | > 1000 | > 1000 | > 1000 | – | – | CCN1CCN(c2ccc(Nc3cc(N(C)C(=O)Nc4c(Cl)c(OC)cc(OC)c4Cl)ncn3)cc2)CC1 [BGJ398, reference compound] | – | IC50 (DMS114): 6.97 nM; IC50 (Cal-120): > 1000 nM; IC50 (JIMT-1): > 1000 nM; IC50 (SNU-16): 2.18 nM; IC50 (AN3-CA): 62.1 nM; IC50 (MFM-223): > 1000 nM; IC50 (MDA-MB-453): > 1000 nM; IC50 (A375): > 1000 nM; IC50 (RT112/84): 8.12 nM; IC50 (Huh-7): 30.9 nM; IC50 (JHH-7): 31.8 nM
9.59 | 1.39 | 47.6 | 35.8 | 144 | 18.5 | 352 | < 0.05 | 750 | COc1cc2nccc(Oc3ccc(NC(=O)Nc4cc(C(C)(C)C)on4)cc3F)c2cc1C(N)=O [Compound 9, 4-{4-[3-(5-tert-butyl-isoxazol-3-yl)-ureido]-2-fluoro-phenoxy}-7-methoxyquinolin-6-carboxamide] | 409 | –
493 | 31 | 346 | > 1000 | > 1000 | 83.5 | 764 | 0.99 | > 1000 | COc1cc2nccc(Oc3ccc(NC(=O)Nc4cc(C(C)(C)C)on4)cn3)c2cc1C(N)=O [Compound 24, 4-{5-[3-(5-tert-butyl-isoxazol-3-yl)-ureido]-pyridin-2-yloxy}-7-methoxyquinolin-6-carboxamide] | 572 | –
9.7 | 0.24 | 14.2 | 16.4 | 44 | 13.5 | 600 | 19.1 | – | COc1cc2nccc(Oc3ccc(NC(=O)Nc4cc(C(C)(C)C)n[nH]4)c(Cl)c3)c2cc1C(N)=O [Compound 25, 4-{4-[3-(5-tert-butyl-2H-pyrazol-3-yl)-ureido]-3-chloro-phenoxy}-7-methoxyquinolin-6-carboxamide] | – | IC50 (DMS114): 15.6 nM; IC50 (Cal-120): 64.7 nM; IC50 (JIMT-1): 467 nM; IC50 (SNU-16): 1.95 nM; IC50 (AN3-CA): 4.95 nM; IC50 (MFM-223): 21.6 nM; IC50 (MDA-MB-453): 309 nM; IC50 (A375): 129 nM; IC50 (RT112/84): 31.5 nM; IC50 (Huh-7): 7.12 nM; IC50 (JHH-7): 4.88 nM; IC50 (PLC/PRF/5): 2.95 nM; IC50 (Hep G2): 127 nM
105 | 4.45 | 166 | 16.8 | 7.32 | 106 | 393 | < 0.05 | > 1000 | COc1cc2nccc(Oc3ccc(NC(=O)Nc4cc(C(C)(C)C)n[nH]4)cc3C)c2cc1C(N)=O [Compound 35, 4-{4-[3-(5-tert-butyl-2H-pyrazol-3-yl)-ureido]-2-methyl-phenoxy}-7-methoxyquinolin-6-carboxamide] | 429 | –
65.7 | 2.62 | 78.9 | 31.5 | 70.8 | 227 | 179 | < 0.05 | 750 | COc1cc2nccc(Oc3ccc(NC(=O)Nc4cc(C(C)(C)C)n[nH]4)cc3Cl)c2cc1C(N)=O [Compound 36, 4-{4-[3-(5-tert-butyl-2H-pyrazol-3-yl)-ureido]-2-chloro-phenoxy}-7-methoxyquinolin-6-carboxamide] | 535 | –
4.73 | 0.19 | 9.6 | 0.498 | 2.05 | 6.44 | 52.3 | 0.97 | 139 | COc1cc2nccc(Oc3ccc(NC(=O)Nc4cc(C(C)(C)C)n[nH]4)c(Cl)c3Cl)c2cc1C(N)=O [Compound 37, 4-{4-[3-(5-tert-butyl-2H-pyrazol-3-yl)-ureido]-2,3-dichloro-phenoxy}-7-methoxyquinolin-6-carboxamide] | 408 | –
107 | 3.28 | 175 | 7.11 | 3.83 | 62.4 | 203 | 0.06 | > 1000 | CNC(=O)c1cc2c(Oc3ccc(NC(=O)Nc4cc(C(C)(C)C)n[nH]4)cc3C)ccnc2cc1OC [Compound 52, 4-{4-[3-(5-tert-butyl-2H-pyrazol-3-yl)-ureido]-2-methyl-phenoxy}-7-methoxyquinolin-6-carboxylate acid methylamide] | > 1000 | –
